Results on 13 molecules are retold here after PubChem BioAssay (NCI).

Some test systems named below: 786-0 renal; PC-3 prostate; EKVX NSCLC; SR leukemia; HOP-62 NSCLC; MCF7 breast; OVCAR-4 ovarian; OVCAR-8 ovarian; SNB-19 CNS; MOLT-4 leukemia.
Holding throughout (assay): NCI anticancer screen, dose series, 48 h

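96-well plates; 48 h exposure; 5 concentrations. Endpoints by linear interpolation between flanking doses. Not reached: highest tested concentration assigned. The concentration for full growth arrest is given as TGI.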 Where only a bound is given, the exact number is not on record here.

Regarding `COc1nc2c(c(=O)n1C)N(C(C)=O)C1C(N2)OCC(OC(C)=O)C1OC(C)=O` (configuration not stated), the TGI with 786-0 renal, in the assay on PC-3 prostate, in the assay on EKVX NSCLC, in the assay with SR leukemia, in the assay on HOP-62 NSCLC and in the assay with MCF7 breast was over 10 µM each time. The TGI in the assay on OVCAR-4 ovarian, in the assay with OVCAR-8 ovarian, with SNB-19 CNS and in the assay on MOLT-4 leukemia was over 10 µM throughout.
Turning to `C=Cc1c(C)c(OC)cc2c1Oc1ccc(OC)c(C)c1CC2`, the TGI in the assay on 786-0 renal, in the assay on PC-3 prostate, in the assay on EKVX NSCLC, in the assay on SR leukemia, in the assay on HOP-62 NSCLC and with MCF7 breast was over 100 µM in each case. Besides, the TGI with OVCAR-4 ovarian, with OVCAR-8 ovarian, with SNB-19 CNS and in the assay with MOLT-4 leukemia was over 100 µM each time.
Consider `COc1ccc(-c2c(N)n(-c3nc4ccccc4s3)c(=O)c3cc([N+](=O)[O-])ccc23)cc1`, for which the TGI with 786-0 renal is 16.2 µM; in the assay with PC-3 prostate, over 100 µM; with EKVX NSCLC, 44.6 µM; with SR leukemia, over 100 µM; with HOP-62 NSCLC it was 27 µM; in the assay on MCF7 breast it was over 100 µM. Further, the TGI in the assay with OVCAR-4 ovarian was 68.4 µM; in the assay with OVCAR-8 ovarian, 23.2 µM; in the assay on SNB-19 CNS, over 100 µM; in the assay on MOLT-4 leukemia, 49.2 µM.
`COCn1c2ccc(OC(C)=O)cc2c2c(=O)oc(N(C)C)nc21`: the TGI with 786-0 renal, in the assay with PC-3 prostate, with EKVX NSCLC, with SR leukemia, in the assay on HOP-62 NSCLC and in the assay on MCF7 breast was over 100 µM throughout. For the same molecule, the TGI in the assay with OVCAR-4 ovarian, in the assay on OVCAR-8 ovarian, in the assay on SNB-19 CNS and in the assay on MOLT-4 leukemia was over 100 µM in each case.
For the molecule `O=c1oc2ccccc2c2c(=O)c3ccc(OC/C(=N/O)c4ccc(Cl)cc4)cc3oc12`, the TGI with 786-0 renal amounted to 24.2 µM; with PC-3 prostate, 24.5 µM; in the assay on SR leukemia it was 8.27 µM; in the assay on HOP-62 NSCLC it was 31.5 µM; with MCF7 breast, 49.6 µM; with OVCAR-8 ovarian, 65.1 µM. For the same molecule, the TGI is 33.1 µM with SNB-19 CNS and 8.79 µM in the assay on MOLT-4 leukemia.
`NNC(=O)c1ccc(-n2nnc(C(=O)NN)c2C(=O)NN)cc1`: the TGI in the assay on 786-0 renal, in the assay on PC-3 prostate, with EKVX NSCLC, in the assay on SR leukemia, in the assay with HOP-62 NSCLC and in the assay with MCF7 breast was over 100 µM in each case. Moreover, the TGI in the assay with OVCAR-4 ovarian, in the assay with OVCAR-8 ovarian, in the assay on SNB-19 CNS and in the assay on MOLT-4 leukemia was over 100 µM throughout.
For `COC(=O)C1CCC(=O)N1CN(C(C)=O)c1ccccc1` (configuration not stated), the TGI in the assay on 786-0 renal, in the assay on PC-3 prostate, in the assay on EKVX NSCLC, with SR leukemia, in the assay with HOP-62 NSCLC and in the assay with MCF7 breast was over 100 µM throughout. The TGI with OVCAR-4 ovarian, with OVCAR-8 ovarian, in the assay on SNB-19 CNS and with MOLT-4 leukemia was over 100 µM each time.
Regarding `CC1=NN(c2ccccc2)C(=O)/C1=C/c1ccc(O)cc1`, the TGI in the assay with 786-0 renal, with PC-3 prostate, in the assay on EKVX NSCLC, with SR leukemia, in the assay with MCF7 breast and in the assay with OVCAR-4 ovarian was over 100 µM throughout. For the same molecule, the TGI in the assay with OVCAR-8 ovarian, with SNB-19 CNS and in the assay with MOLT-4 leukemia was over 100 µM in each case.
Take `CCCCCCNC(=O)c1cnc(Cl)cn1`: the TGI with 786-0 renal was over 100 µM; in the assay on PC-3 prostate, 22.8 µM; in the assay on EKVX NSCLC it was 20.7 µM; with SR leukemia, 16.6 µM; in the assay with HOP-62 NSCLC, 34.3 µM; in the assay with MCF7 breast it was 23.6 µM. In addition, the TGI with OVCAR-4 ovarian was 47.9 µM; in the assay with OVCAR-8 ovarian, 34.5 µM; in the assay on SNB-19 CNS, 43.7 µM; in the assay with MOLT-4 leukemia, 23.2 µM.
Regarding `O=NC1C(Cl)C2CC1C1C(Br)C(Br)CC21` (configuration not stated), the TGI in the assay with 786-0 renal, in the assay with PC-3 prostate, with EKVX NSCLC, in the assay with SR leukemia, in the assay with HOP-62 NSCLC and in the assay with MCF7 breast was over 100 µM throughout. Besides, the TGI in the assay on OVCAR-4 ovarian, in the assay on OVCAR-8 ovarian, with SNB-19 CNS and with MOLT-4 leukemia was over 100 µM in each case.
For `C#CCOCC12C=CC(O1)C1C(=O)N(C)C(=O)C12` (configuration not stated), the TGI with 786-0 renal, with PC-3 prostate, in the assay with EKVX NSCLC, in the assay on SR leukemia, in the assay on HOP-62 NSCLC and in the assay with MCF7 breast was over 100 µM in each case. In addition, the TGI in the assay on OVCAR-4 ovarian, with OVCAR-8 ovarian, in the assay on SNB-19 CNS and with MOLT-4 leukemia was over 100 µM throughout.
Consider `O=C(O[C@H]1[C@@H](O)[C@H](n2cnc3c(Cl)ncnc32)O[C@@H]1COC(c1ccccc1)(c1ccccc1)c1ccccc1)c1ccccc1`, for which the TGI worked out at 58.1 µM with 786-0 renal; 24.5 µM in the assay with PC-3 prostate; 32.3 µM with EKVX NSCLC; 18.6 µM in the assay with SR leukemia; 51.7 µM in the assay with HOP-62 NSCLC; 23.4 µM in the assay on MCF7 breast. Besides, the TGI with OVCAR-4 ovarian was over 100 µM; in the assay with OVCAR-8 ovarian, over 100 µM; in the assay on SNB-19 CNS, over 100 µM; with MOLT-4 leukemia, 17.9 µM.
For the molecule `COc1ccccc1NC(=O)/C(Cc1nc2ccc([N+](=O)[O-])cc2[nH]c1=O)=N\NC(=O)C[N+](C)(C)C`, the TGI is over 100 µM with 786-0 renal; over 100 µM in the assay with PC-3 prostate; over 100 µM in the assay with EKVX NSCLC; 6.47 µM with SR leukemia; over 100 µM in the assay on HOP-62 NSCLC; over 100 µM in the assay on MCF7 breast. The TGI in the assay with OVCAR-4 ovarian, in the assay with OVCAR-8 ovarian, with SNB-19 CNS and in the assay with MOLT-4 leukemia was over 100 µM each time.
